# Species on record: Rattus norvegicus
# Assay: Open TG-GATES - Regimen: Single
# Assay type: toxicity, organism-based, Sprague-Dawley
# Parameters: regimen Single, gender Male, age 6 weeks
# Conditions: in vivo, po, route gavage; for gamma-GTP / ALP / ALT / AST / BUN / CRE / Ca / Cl / DBIL / GLC / IP / K / LDH / Na / PL / RALB / TBIL / TC / TG / TP: tissue Plasma; for APTT / Bas / Eos / Fbg / Hb / Ht / Lym / MCH / MCHC / Mono / Neu / Plat / RBC / Ret / WBC: tissue Blood; for KIDNEY_L / KIDNEY_R / KIDNEY_TOTAL: tissue Kidney; for LIVER: tissue Liver
# [1] = 10 mg/kg, 3 h, dose level Middle
# [2] = 10 mg/kg, 6 h, dose level Middle
# [3] = 10 mg/kg, 9 h, dose level Middle
# [4] = 10 mg/kg, 24 h, dose level Middle
compound,measurement,setting,value
O=C(CCCN1CCC(O)(c2ccc(Cl)cc2)CC1)c1ccc(F)cc1 [HALOPERIDOL],gamma-GTP,"3 mg/kg, 24 h, dose level Low",1.6 IU/L
same,TERMINAL_BW,[1],204.5 g
same,APTT,[1],17.3 s
same,Bas,[1],0%
same,Eos,[1],0.4%
same,Fbg,[1],202.4 mg/dL
same,Hb,[1],13.2 g/dL
same,Ht,[1],39.7%
same,Lym,[1],71.2%
same,MCH,[1],22 pg
same,MCHC,[1],33.1%
same,Mono,[1],12%
same,Neu,[1],16.4%
same,Plat,[1],97.9 x10_4/uL
same,RBC,[1],598.8 x10_4/ul
same,Ret,[1],8.8%
same,WBC,[1],87.7 x10_2/uL
same,KIDNEY_L,[1],0.9 g
same,KIDNEY_R,[1],1 g
same,KIDNEY_TOTAL,[1],1.9 g
same,LIVER,[1],9.9 g
same,ALP,[1],802.2 IU/L
same,ALT,[1],36 IU/L
same,AST,[1],59.8 IU/L
same,BUN,[1],11.6 mg/dL
same,CRE,[1],0.6 mg/dL
same,Ca,[1],10.8 mg/dL
same,Cl,[1],107 meq/L
same,DBIL,[1],0.02 mg/dL
same,GLC,[1],216.2 mg/dL
same,IP,[1],10.1 mg/dL
same,K,[1],4.5 meq/L
same,LDH,[1],107.4 IU/L
same,Na,[1],140 meq/L
same,PL,[1],141.2 mg/dL
same,RALB,[1],3.5 g/dL
same,TBIL,[1],0.3 mg/dL
same,TC,[1],80.8 mg/dL
same,TG,[1],30 mg/dL
same,TP,[1],5.5 g/dL
same,gamma-GTP,[1],1.2 IU/L
same,TERMINAL_BW,[2],201.2 g
same,APTT,[2],16.6 s
same,Bas,[2],0%
same,Eos,[2],0.8%
same,Fbg,[2],201.2 mg/dL
same,Hb,[2],13.8 g/dL
same,Ht,[2],41.9%
same,Lym,[2],69.8%
same,MCH,[2],21.6 pg
same,MCHC,[2],32.9%
same,Mono,[2],5.5%
same,Neu,[2],24%
same,Plat,[2],99.7 x10_4/uL
same,RBC,[2],637.2 x10_4/ul
same,Ret,[2],8.6%
same,WBC,[2],75.3 x10_2/uL
same,KIDNEY_L,[2],0.9 g
same,KIDNEY_R,[2],1 g
same,KIDNEY_TOTAL,[2],1.9 g
same,LIVER,[2],8.9 g
same,ALP,[2],922.8 IU/L
same,ALT,[2],31.8 IU/L
same,AST,[2],56.5 IU/L
same,BUN,[2],8.8 mg/dL
same,CRE,[2],0.4 mg/dL
same,Ca,[2],10.4 mg/dL
same,Cl,[2],107.2 meq/L
same,DBIL,[2],0.025 mg/dL
same,GLC,[2],189.2 mg/dL
same,IP,[2],10.2 mg/dL
same,K,[2],4.7 meq/L
same,LDH,[2],111 IU/L
same,Na,[2],139.5 meq/L
same,PL,[2],130.5 mg/dL
same,RALB,[2],3.5 g/dL
same,TBIL,[2],0.4 mg/dL
same,TC,[2],75.2 mg/dL
same,TG,[2],29.5 mg/dL
same,TP,[2],5.5 g/dL
same,gamma-GTP,[2],1.2 IU/L
same,TERMINAL_BW,[3],195.8 g
same,APTT,[3],17 s
same,Bas,[3],0%
same,Eos,[3],0.4%
same,Fbg,[3],210 mg/dL
same,Hb,[3],13.9 g/dL
same,Ht,[3],41.8%
same,Lym,[3],75.8%
same,MCH,[3],21.8 pg
same,MCHC,[3],33.4%
same,Mono,[3],7.8%
same,Neu,[3],16%
same,Plat,[3],101.8 x10_4/uL
same,RBC,[3],641.2 x10_4/ul
same,Ret,[3],8.6%
same,WBC,[3],63.2 x10_2/uL
same,KIDNEY_L,[3],0.9 g
same,KIDNEY_R,[3],0.9 g
same,KIDNEY_TOTAL,[3],1.7 g
same,LIVER,[3],8.4 g
same,ALP,[3],812.8 IU/L
same,ALT,[3],27.8 IU/L
same,AST,[3],53.8 IU/L
same,BUN,[3],9.2 mg/dL
same,CRE,[3],0.6 mg/dL
same,Ca,[3],10.1 mg/dL
same,Cl,[3],107 meq/L
same,DBIL,[3],0.024 mg/dL
same,GLC,[3],200.2 mg/dL
same,IP,[3],11.1 mg/dL
same,K,[3],4.6 meq/L
same,LDH,[3],100 IU/L
same,Na,[3],139.6 meq/L
same,PL,[3],134.2 mg/dL
same,RALB,[3],3.7 g/dL
same,TBIL,[3],0.4 mg/dL
same,TC,[3],76.4 mg/dL
same,TG,[3],25.8 mg/dL
same,TP,[3],5.5 g/dL
same,gamma-GTP,[3],2.6 IU/L
same,TERMINAL_BW,[4],213.1 g
same,APTT,[4],16.2 s
same,Bas,[4],0%
same,Eos,[4],1.2%
same,Fbg,[4],193.4 mg/dL
same,Hb,[4],14.2 g/dL
same,Ht,[4],42.4%
same,Lym,[4],82%
same,MCH,[4],21.9 pg
same,MCHC,[4],33.5%
same,Mono,[4],6.8%
same,Neu,[4],10%
same,Plat,[4],114.7 x10_4/uL
same,RBC,[4],648 x10_4/ul
same,Ret,[4],8.2%
same,WBC,[4],76.5 x10_2/uL
same,KIDNEY_L,[4],1 g
same,KIDNEY_R,[4],0.9 g
same,KIDNEY_TOTAL,[4],1.9 g
same,LIVER,[4],10.5 g
same,ALP,[4],1019.6 IU/L
same,ALT,[4],32.6 IU/L
same,AST,[4],62.2 IU/L
same,BUN,[4],23.8 mg/dL
same,CRE,[4],0.5 mg/dL
same,Ca,[4],11.2 mg/dL
same,Cl,[4],104.6 meq/L
same,DBIL,[4],0.034 mg/dL
same,GLC,[4],182.4 mg/dL
same,IP,[4],8.2 mg/dL
same,K,[4],5 meq/L
same,LDH,[4],102.4 IU/L
same,Na,[4],140 meq/L
same,PL,[4],160.2 mg/dL
same,RALB,[4],3.9 g/dL
same,TBIL,[4],0.3 mg/dL
same,TC,[4],79.8 mg/dL
same,TP,[4],6 g/dL
same,gamma-GTP,[4],1 IU/L

# — ChEMBL document CHEMBL3885861, “Open TG-GATES”
